In patent US20040180417A1, “Secretase/sheddase with asp-ase activity on the beta-site app-cleaving enzyme (bace, asp2, memepsin2)” (priority 2000, published 2004):
Starred links: 1 amine or outer side, 2 acyl side, 3 side chain; linkers in the order of their positions; H or OH if unused. Non-standard residues stand in square brackets, D forms with d. Residues, ends and D or L forms follow the SMILES beside them. *: point of attachment. X1 = CC(N[*:1])C(=O)C(F)(F)C(=O)[*:2]; Cbz = O=C(OCc1ccccc1)*; Boc = CC(C)(C)OC(=O)*; CH2F = FC*

Columns and labels:
BACE secretase/sheddase = BACE secretase/sheddase activity (BACE C-terminal fragments) in Neuro 2a cells; assay type: cell-based
Description: (§1) FIG. 8: [A] Neuro 2a APPSW cells were transiently transfected with cDNA for [BACEF]FG. Cells were labeled with ^35S-Met for 3 hrs in the absence (−, DMSO control) or presence of 100 uM of a substrate based γ-secretase inhibitor (+γ-sec I, DFK-167 Enzyme Systems products). Cell lysates were immunoprecipitaed with FG antibodies, reduced and analyzed by SDS-PAGE on 8% tricine gels. Cell lysates [B] and media [C] were immunoprecipited with antibody APP711-03 and analyzed by SDS-PAGE on 8% tricine gels. [D] Media was immunoprecipited with the 1-40 Aβ antibody and analyzed on a 14% tricine gel. The exposure time was 3 days.
Transfections and biosynthetic analyses—All transfections were done on 2−4×10^5 HK293 cells using Effectene (Qiagen) and a total of 1-1.5 μg of BACE contruct cDNAs subcloned into the vector pIRES2-EGFP. Two days post-transfection the cells were washed and then pulse-incubated for various times with either 200 μCi/ml of [^35S]Met; 400 μCi/ml Na2[^35SO4], [^3H]Leu, [^3H]Arg, [^3H]Ser; or 1 mCi/ml [^3H]palmitate EN) (20). Pulse-chase experiments with [^35S]Met were carried out as previously described (21). Cells were lysed in immunoprecipitation buffer [150 mM NaCl, 50 mM Tris-HCl pH 6.8, 0.5% NP40, 0.5% sodium deoxycholate and a protease inhibitor cocktail (Roche Diagnostics). The lysates and media were then prepared for immunoprecipitations as reported (22). The monoclonal antibodies used were directed against either the FL (Flag-M2; 1:500 dilution; Stratagene) or V5 (1:1000 dilution; Invitrogen) epitopes. Rabbit polyclonal antisera included those directed against aa 1-16 of human Aβ (produced in laboratory, dilution 1:200); anti-β-amyloid, recognizing mostly the C-terminal part of Aβ40 (A8326, dilution 1:200, Sigma); and FCA 18, recognizing all peptides starting with the Asp at the N-terminus of Aβ (23). Immunoprecipitates were resolved on SDS-PAGE (either 8% or 14% tricine gels) and autoradiographed (21). All PC inhibitor proteins were cloned in pcDNA3 (Invitrogen), including those of α1-PDX (8); the preprosegments of furin, PC7 (24), PC5 (25), SKI-1 (26,27); and wild type (α2-M) and furin-site mutated (α2-MG-F) α2-macroglubulin (28).
C-terminal processing of BACE—In order to further characterize the nature of apparent C-terminal cleaved BACE fragments (FIG. 5C), the analysis of [BACEF]FG fragments immunoprecipitated with antiserum to Flag from HK293 cells were repeated. In addition to the 6 kDa fragment noted in FIG. 5C, fragments of 34, 15, and 11 kDa are apparent (FIG. 7). […] In addition, the intensity of the 11 and 6 kDa bands appear to diminish. It was expected that some of these BACE fragments would be disulfide linked, since it is known that the six Cys residues in the ectodomain form three intramolecular disulfide linkages (Cys^216-Cys^420, Cys^278-Cys^443, Cys^330-Cys^380) (41). The 34, 15, 11 and 6 kDa BACE fragments are also apparent when [BACEF]FG is expressed in Neuro 2a cells (FIG. 8). The relative levels of the 11 kDa fragment compared to the other cleaved fragments of BACE appear lower in Neuro 2a compared to HK293 cells. In any case, the sites of ectodomain cleavage are apparently the same in the two cell types. […] The significance of an apparent reduction in the level of the 6 kDa BACE fragment is unknown.

γ-secretase = test: βAPP processing (Aβ, C99) in Neuro 2a APPSW cells; assay type: cell-based; settings: 100 uM inhibitor, 3 hrs
Description: as §1
C-terminal processing of BACE—In order to further characterize the nature of apparent C-terminal cleaved BACE fragments (FIG. 5C), the analysis of [BACEF]FG fragments immunoprecipitated with antiserum to Flag from HK293 cells were repeated. In addition to the 6 kDa fragment noted in FIG. 5C, fragments of 34, 15, and 11 kDa are apparent (FIG. 7). […] In addition, the intensity of the 11 and 6 kDa bands appear to diminish. It was expected that some of these BACE fragments would be disulfide linked, since it is known that the six Cys residues in the ectodomain form three intramolecular disulfide linkages (Cys^216-Cys^420, Cys^278-Cys^443, Cys^330-Cys^380) (41). The 34, 15, 11 and 6 kDa BACE fragments are also apparent when [BACEF]FG is expressed in Neuro 2a cells (FIG. 8). […]

[1] = tested on: proBACE processing by PC-like enzyme; test: proBACE processing in HK293 cells co-expressing [BACEF]FG/V5 and PC-inhibitors (pulse-chase, immunoprecipitation, SDS-PAGE); assay type: cell-based, human; settings: 15 min [35S]Met pulse, chase 1 h or 2h; FG epitope; α1-PDX co-transfected or BFA present
Description: FIG. 1: HK293 cells were transiently co-transfected with either ([BACEF]FG/V5+BDNF) [control, CTL] (A,C) or ([BACEF]FG/V5+α1-PDX) (B,D) cDNAs. Two days post-transfections the cells were pulse-labeled in the absence or presence of […] BFA for 15 min with [^35S]Met and then chased for 1 or 2h. Cell lysates were immunoprecipitated with either the FG or V5 mAbs and analysed by SDS-PAGE on 8% tricine gels. The migration position of the 53 kDa molecular mass standard and those of proBACE (pBACE) and BACE are emphasized.
FIG. 2: [A] HK293 cells were transiently co-transfected with cDNAs coding for either ([BACEF]FG/V5+BDNF) [control, CTL], ([BACEF-R45A]FG/V5+BDNF) or ([BACEF-R42A]FG/V5+BDNF) or ([BACEF]FG/V5+either α1-PDX, the prosegments of furin, PC5, PC7, SKI-1, furin-mutated (α2M-F) or wild type (α2M) α2-macroglobulin. The cells were pulse-labeled for 20 min with [^35S]Met and then chased for 90 min. Cell lysates were immunoprecipitated with the FG mAb and analysed by SDS-PAGE on 8% tricine gels. [B] HK293 cells were transiently co-transfected with cDNAs coding for either ([BACEF]FG/V5+BDNF) [CTL], ([BACEF]FG/V5+furin) or ([BACEF]FG/V5+α1-PDX). The cells were then pulse-labeled for 2h with Na2[^35SO4]. Cell lysates were immunoprecipitated with the FG or V5 mAbs and analysed by SDS-PAGE on 8% tricine gels. […]

proBACE = test: Exit of proBACE from the ER in HK293 cells (3h [35S]Met pulse); assay type: cell-based, human; settings: 90 μM BFA or 250 nM bafilomycin, 37° C.
Description: FIG. 5: HK293 cells were transiently transfected with cDNAs coding for either [A,B] (BDNF+βAPPSW) [CTL] or ([BACEF]FG+βAPPSW), [C] [BACEF]FG or [BACES]FG. The cells were pulse-labeled for 3h with [^35S]Met at either 37° C. in the absence or presence of 90 μM BFA or 250 nM bafilomycin or at 20° C. Cell lysates were immunoprecipitated with either [A] the FG mAb or [B] the 1-16 Aβ antibody, and analysed by SDS-PAGE on 8% tricine gels. [C] FG antibody, and analysed by SDS-PAGE on 8% tricine gels. The arrowhead point to an ˜6 kDa intracellular stub of BACEF.
Transfections and biosynthetic analyses—All transfections were done on 2−4×10^5 HK293 cells using Effectene (Qiagen) and a total of 1-1.5 μg of BACE contruct cDNAs subcloned into the vector pIRES2-EGFP. Two days post-transfection the cells were washed and then pulse-incubated for various times with either 200 μCi/ml of [^35S]Met; 400 μCi/ml Na2[^35SO4], [^3H]Leu, [^3H]Arg, [^3H]Ser; or 1 mCi/ml [^3H]palmitate EN) (20). Pulse-chase experiments with [^35S]Met were carried out as previously described (21). Cells were lysed in immunoprecipitation buffer [150 mM NaCl, 50 mM Tris-HCl pH 6.8, 0.5% NP40, 0.5% sodium deoxycholate and a protease inhibitor cocktail (Roche Diagnostics). The lysates and media were then prepared for immunoprecipitations as reported (22). […]

BACE = target: T1, BACE (Mus musculus, UniProt P56818); test: In vitro β-secretase activity on a 20 aa synthetic βAPPSW peptide (RP-HPLC); assay type: biochemical
T1 construct: TDEST454; FLAG (DYKDDDDK), inserted just after the signal peptide cleavage site (after Ala19) (N); made in house; host or cells: HK293 cells, transiently transfected; 10-20 fold-concentrated medium

[proBACES]FG/V5 = In vitro PC-mediated processing of proBACES (Western blot); assay type: biochemical, mouse; settings: equivalent hydrolytic activities of PCs, 1-4 hours incubation

T1 sequence (P56818 46-457 limits assumed): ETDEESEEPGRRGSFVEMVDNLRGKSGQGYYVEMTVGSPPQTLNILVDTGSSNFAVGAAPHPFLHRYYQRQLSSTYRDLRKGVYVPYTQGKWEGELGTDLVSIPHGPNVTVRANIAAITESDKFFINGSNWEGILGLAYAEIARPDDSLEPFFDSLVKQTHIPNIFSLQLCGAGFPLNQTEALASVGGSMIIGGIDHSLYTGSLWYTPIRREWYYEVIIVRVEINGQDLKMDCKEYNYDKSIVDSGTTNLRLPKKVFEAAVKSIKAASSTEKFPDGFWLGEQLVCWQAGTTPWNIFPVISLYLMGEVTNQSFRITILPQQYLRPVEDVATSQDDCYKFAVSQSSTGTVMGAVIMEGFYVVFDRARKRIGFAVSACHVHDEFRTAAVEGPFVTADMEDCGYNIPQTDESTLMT

CCC(C)C(NC(=O)C(NC(=O)OC(C)(C)C)C(C)C)C(=O)NC(C)C(=O)C(F)(F)C(=O)NC(C(=O)NC(C(=O)OC)C(C)CC)C(C)C (stereo not shown) (Boc-VI[X1]VI-OMe; configuration not given here)
levels of BACE fragments (34, 15 and 11 kDa) (BACE secretase/sheddase; Neuro 2a APPSW cells transfected with [BACEF]FG, 100 uM inhibitor, 3 hrs): largely unchanged
inhibition of BACE secretase/sheddase activity (BACE secretase/sheddase; Neuro 2a cells): does not inhibit
cellular C99 levels (γ-secretase; cell lysates): elevates
Aβ formation (γ-secretase; media): completely inhibits

COC(=O)C[C@H](NC(=O)[C@H](C)NC(=O)[C@@H](NC(=O)OCc1ccccc1)C(C)C)C(=O)CF [Z-Val-Ala-Asp(OMe)-CH2F] (Cbz-Val-Ala-Asp(OMe)-CH2F)
effect on BACE secretase/sheddase activity (BACE secretase/sheddase; Neuro 2a cells, 100 uM): had no effect

C[C@H]1CCC/C=C/[C@@H]2C[C@H](O)C[C@H]2[C@H](O)/C=C/C(=O)O1 [BFA, brefeldin A]
72 kDa proBACE form [1]: not apparent
escape of 66 kDa proBACE from the ER (proBACE): prevented

CNC(=O)[C@H](Cc1c[nH]c2ccccc12)NC(=O)[C@@H](CC(=O)NO)CC(C)C [GM6001]
inhibition of BACE secretase/sheddase activity (BACE secretase/sheddase; Neuro 2a cells): did not inhibit

CC(C)C[C@H](CC(=O)NO)C(=O)N[C@@H](Cc1ccc2ccccc2c1)C(=O)N[C@@H](C)C(=O)NCCN [TAPI-1]
inhibition of BACE secretase/sheddase activity (BACE secretase/sheddase; Neuro 2a cells): did not inhibit

THLGIRLPLRSGLAGPPLGLRLPR [proBACE 22-45]
inhibition of the Swedish peptide substrate cleavage (BACE; 20 μM peptide pre-incubated with active BACE, substrate at 10 μM): 20%

furin
increase in the level of BACE activity (BACE; pre-incubation of BACES-containing media with furin, four separate experiments): 50±3%
time to completely process proBACE into BACE ([proBACES]FG/V5): ≤ 2 h

CO/C1=C\C(C)=C\[C@@H](C)[C@@H](O)[C@@H](C)C/C(C)=C/C=C/[C@H](OC)[C@@H]([C@@H](C)[C@@H](O)[C@H](C)[C@@]2(O)C[C@@H](O)[C@H](C)[C@@H](C(C)C)O2)OC1=O [bafilomycin]
escape of 66 kDa proBACE from the ER (proBACE): retarding effect
